Reference: patent publication US9839701B2, “Aromatic amino acid derivative and positron emission topography (PET) probe using the same” (OSAKA UNIVERSITY, priority 2013, dated 2017)

Assays:
human LAT1 = molecular target: T1, human LAT1 (Homo sapiens, UniProt Q01650); assay: Inhibition of amino acid uptake in human LAT1 stably expressing cell line; assay type: cell-based
T1 construct: expressed in transfected cells
Excerpt: (§1) A human LAT1 expression vector or a human LAT2 expression vector was transfected using Lipofectamine (registered trademark) 2000 (Invitrogen) into a human embryonic kidney cell line HEK293. G418-resistant HEK293 clones were selected, and among them, a clone showing human LAT1-specific amino acid uptake and a clone showing human LAT2-specific amino acid uptake were selected and established as a human LAT1 stably expressing cell line and a human LAT2 stably expressing cell line, respectively (Khunweeraphong et al. J Pharmacol Sci. 2012 Aug. 18; 119(4): 368-80. Epub 2012 Jul. 31).
(§2) The human LAT1 stably expressing cell line and the human LAT2 stably expressing cell line were seeded at 1.2×10^5 cells/well on separate collagen-coated 24-well plates, and after 48 hours, the cells were washed 3 times with an uptake buffer (Na^2+-free Hank's balanced salt solution (HBSS), pH 7.4) prewarmed at 37° C. Compound 10a, compound 10b or a positive control FAMT (fluoro-α-methyltyrosine) was added at 100 μM, and incubation was performed at 37° C. for 3 minutes. Cells not treated with any of these compounds were used as a negative control. After the incubation, 1 μM of [^14C]L-leucine or [^14C]alanine was added to the wells, [^14C]L-leucine or [^14C]alanine uptake was allowed to proceed for 1 minute, and the cells were washed 3 times with an ice-cold uptake buffer. Subsequently, 500 μL of 0.1 M NaOH was added to each well for cell lysis, 20 μL of the lysate was used for the measurement of the protein concentration, and the remaining lysate was used for the measurement of the intracellular radioactivity. The measured radioactivity was normalized to the protein concentration, and on the assumption that the amino acid uptake activity in the negative control was 100%, the percentage (%) of inhibition of amino acid uptake in the presence of each compound was calculated.
(§3) Using the same cell lines as described in Example 2, the compound of Example 1 was examined for the inhibitory effect on leucine or alanine uptake in the human LAT1 stably expressing cell line and the human LAT2 stably expressing cell line in the same manner as in Example 2. FAMT was used as the positive control. The compound of Example 1 or FAMT was added at 100 μM. Cells not treated with either of these compounds were used as a negative control. On the assumption that the amino acid uptake activity in the negative control (control) was 100%, the percentage (%) of inhibition of amino acid uptake in the presence of FAMT or the compound of Example 1 was calculated. In addition, the cancer cell selectivity was calculated as the ratio of the amino acid uptake activity in the human LAT2 stably expressing cell line relative to that in the human LAT1 stably expressing cell line.
(§4) In another experiment, the cells were treated with the compound of Example 1 at eight different concentrations (0.1, 1, 3, 10, 30, 100, 300 and 1000 μM), and the concentration causing 50% inhibition of amino acid uptake was calculated as the IC50 value.
(§5) A human LAT1 stably expressing cell line and a human LAT2 stably expressing cell line, each of which was the same as described in Example 2, were seeded at 1.2×10^5 cells/well, and after 48 hours, the cells were washed 3 times with an uptake buffer (Na^2+-free Hank's balanced salt solution (HBSS), pH 7.4) prewarmed at 37° C. The test compounds, L-tyrosine or the positive control FAMT (fluoro-α-methyltyrosine) was added at 30 μM, and incubation was performed at 37° C. for 3 minutes. Cells not treated with any of these compounds were used as a negative control. After the incubation, 1 μM of [^14C]L-leucine or [^14C]alanine was added to the wells, [^14C]L-leucine or [^14C]alanine uptake was allowed to proceed for 1 minute, and the cells were washed 3 times with an ice-cold uptake buffer. […]

human LAT2 = molecular target: T2, human LAT2 (Homo sapiens, UniProt Q9UHI5); assay: Inhibition of amino acid uptake in human LAT2 stably expressing cell line; assay type: cell-based; conditions: human LAT2 stably expressing HEK293 cell line; for inhibition at 30 µM: HEK293, compound at 30 μM, read-out: Percentage of inhibition of LAT2-mediated amino acid uptake
T2 construct: expressed in transfected cells
T2 sequence (Q9UHI5 1-535): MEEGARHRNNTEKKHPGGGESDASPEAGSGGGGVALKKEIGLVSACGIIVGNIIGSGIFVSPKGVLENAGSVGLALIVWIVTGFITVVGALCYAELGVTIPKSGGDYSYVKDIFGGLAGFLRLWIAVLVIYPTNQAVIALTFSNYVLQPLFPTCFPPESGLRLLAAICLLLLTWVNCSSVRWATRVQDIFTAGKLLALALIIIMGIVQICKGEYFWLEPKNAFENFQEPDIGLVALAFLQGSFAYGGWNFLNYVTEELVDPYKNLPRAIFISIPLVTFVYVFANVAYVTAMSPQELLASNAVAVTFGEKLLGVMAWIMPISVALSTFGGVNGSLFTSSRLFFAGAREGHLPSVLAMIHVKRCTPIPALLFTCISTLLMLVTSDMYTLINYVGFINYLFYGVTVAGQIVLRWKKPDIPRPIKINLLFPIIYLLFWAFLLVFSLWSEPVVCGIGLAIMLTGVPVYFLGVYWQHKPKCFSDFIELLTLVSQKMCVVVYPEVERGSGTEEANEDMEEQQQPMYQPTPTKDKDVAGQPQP
T2 sequence (P08195 1-529 partner): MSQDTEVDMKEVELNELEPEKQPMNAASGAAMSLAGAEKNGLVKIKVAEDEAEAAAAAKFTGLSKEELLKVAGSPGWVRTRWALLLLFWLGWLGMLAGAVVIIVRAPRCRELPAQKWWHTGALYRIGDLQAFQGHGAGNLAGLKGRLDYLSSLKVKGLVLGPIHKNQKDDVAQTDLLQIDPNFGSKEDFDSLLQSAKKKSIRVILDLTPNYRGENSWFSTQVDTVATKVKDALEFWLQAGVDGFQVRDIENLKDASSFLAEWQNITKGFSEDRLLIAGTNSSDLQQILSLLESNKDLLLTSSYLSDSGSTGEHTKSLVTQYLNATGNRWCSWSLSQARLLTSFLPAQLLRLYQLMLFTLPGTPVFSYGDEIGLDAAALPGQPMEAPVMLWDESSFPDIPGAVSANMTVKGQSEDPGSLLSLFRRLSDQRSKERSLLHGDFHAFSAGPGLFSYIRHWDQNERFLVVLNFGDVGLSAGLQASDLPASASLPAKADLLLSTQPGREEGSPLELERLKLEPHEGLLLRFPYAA
Excerpt: as §1, §2, §3, §4, §5

[1] = compound at 30 μM, human LAT1 stably expressing HEK293 cell line, 30 µM

T1 sequence (Q01650 whole entry, one chain of several): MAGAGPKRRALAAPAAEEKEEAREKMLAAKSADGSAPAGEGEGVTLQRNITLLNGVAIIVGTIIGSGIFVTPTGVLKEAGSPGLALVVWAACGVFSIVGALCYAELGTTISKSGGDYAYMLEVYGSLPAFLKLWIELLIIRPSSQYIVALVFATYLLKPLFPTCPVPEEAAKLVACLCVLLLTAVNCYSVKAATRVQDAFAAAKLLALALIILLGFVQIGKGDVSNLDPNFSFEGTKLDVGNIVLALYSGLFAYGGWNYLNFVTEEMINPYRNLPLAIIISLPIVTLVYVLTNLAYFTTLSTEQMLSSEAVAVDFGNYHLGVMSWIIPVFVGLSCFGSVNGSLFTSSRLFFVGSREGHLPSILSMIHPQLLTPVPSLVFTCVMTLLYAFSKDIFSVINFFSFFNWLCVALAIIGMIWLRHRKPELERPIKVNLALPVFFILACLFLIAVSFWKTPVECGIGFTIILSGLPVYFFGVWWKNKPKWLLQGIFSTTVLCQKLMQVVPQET

| Compound | Cancer cell selectivity (amino acid uptake activity in human LAT2 line / in human LAT1 line) (human LAT1; compound at 30 μM) | Percentage of inhibition of LAT1-mediated amino acid uptake (human LAT1; [1]) [%] | Percentage of inhibition of LAT2-mediated amino acid uptake (human LAT2; compound at 30 μM, 30 µM) [%] | other results |
| --- | --- | --- | --- | --- |
| fluoro-α-methyltyrosine [FAMT, reference compound] | 1.5 | – | – | Percentage of inhibition of LAT1-mediated amino acid uptake (human LAT1; compound at 30 μM, human LAT1 stably expressing HEK293 cell line): 44.2%; Percentage of inhibition of LAT1-mediated amino acid uptake (human LAT1; compound at 100 μM, human LAT1 stably expressing HEK293 cell line, 1 μM [14C]L-leucine or [14C]alanine, 1 min uptake): 52.4%; Percentage of inhibition of LAT2-mediated amino acid uptake (human LAT2; compound at 30 μM): 16.3%; Percentage of inhibition of LAT2-mediated amino acid uptake (human LAT2; compound at 100 μM, 1 μM [14C]L-leucine or [14C]alanine, 1 min uptake): 28.3% |
| NC(Cc1cc(OCCOCCF)ccc1I)C(=O)O (single isomer, unassigned) [compound 27 (R), 2-amino-3-(5-(2-(2-fluoroethoxy)ethoxy)-2-iodophenyl)propanoic acid] | 1.39 | 35.4 | – | inhibition at 30 µM (human LAT2): 10.6% |
| NC(Cc1cc(OCCF)ccc1Br)C(=O)O (single isomer, unassigned) [compound 24b, 2-amino-3-(2-bromo-5-(2-fluoroethoxy)phenyl)propanoic acid] | 4.42 | 85.1 | 34.3 | – |
| NC(Cc1cc(OCCF)ccc1C1CC1)C(=O)O (single isomer, unassigned) [compound 23a, 2-amino-3-(2-cyclopropyl-5-(2-fluoroethoxy)phenyl)propanoic acid] | 1.41 | 37.5 | 11.8 | – |
| N[C@@H](Cc1ccc(O)cc1)C(=O)O [L-Tyr, L-tyrosine, reference compound] | 1.16 | – | – | inhibition at 30 µM (human LAT1; HEK293, compound at 30 μM, human LAT1 stably expressing HEK293 cell line, read-out: Percentage of inhibition of LAT1-mediated amino acid uptake): 42.3%; inhibition at 30 µM (human LAT2): 33.1% |
| NC(Cc1cc(OCCF)ccc1Br)C(=O)O (single isomer, unassigned) [compound 24a, 2-amino-3-(2-bromo-5-(2-fluoroethoxy)phenyl)propanoic acid] | 1.12 | 11.6 | 0.8 | – |
| NC(Cc1cc(OCCF)ccc1I)C(=O)O (single isomer, unassigned) [compound 10a, 2-amino-3-(5-(2-fluoroethoxy)-2-iodophenyl)propanoic acid] | 1.44 | 33.8 | 4.7 | Cancer cell selectivity (amino acid uptake activity in human LAT2 line / in human LAT1 line) (human LAT1; compound at 100 μM): higher than that in the human LAT2 stably expressing cell line |
| NC(Cc1cc(OCCCCF)ccc1I)C(=O)O (single isomer, unassigned) [compound 25b, 2-amino-3-(5-(4-fluorobutoxy)-2-iodophenyl)propanoic acid] | 15.13 | 94.1 | 11.3 | – |
| NC(Cc1cc(OCCOCCF)ccc1I)C(=O)O (single isomer, unassigned) [compound 27 (S), 2-amino-3-(5-(2-(2-fluoroethoxy)ethoxy)-2-iodophenyl)propanoic acid] | 9.04 | 89.5 | 6.5 | – |
| NC(Cc1cc(OCCF)ccc1C1CC1)C(=O)O (single isomer, unassigned) [compound 23b, 2-amino-3-(2-cyclopropyl-5-(2-fluoroethoxy)phenyl)propanoic acid] | 11.2 | 94.5 | 39.9 | – |
| NC(Cc1cc(OCCCCF)ccc1I)C(=O)O (single isomer, unassigned) [compound 25a, 2-amino-3-(5-(4-fluorobutoxy)-2-iodophenyl)propanoic acid] | 1.49 | 37.7 | – | inhibition at 30 µM (human LAT2): 7.3% |
| NC(Cc1cc(OCCF)ccc1I)C(=O)O (single isomer, unassigned) [compound 10b, 2-amino-3-(5-(2-fluoroethoxy)-2-iodophenyl)propanoic acid] | 8.59 | 91.2 | 24.5 | Cancer cell selectivity (amino acid uptake activity in human LAT2 line / in human LAT1 line) (human LAT1; compound at 100 μM): higher than that in the human LAT2 stably expressing cell line |
